Where two headings read alike, the source gives them in different places.
Key:
[1] = Intrinsic clearance (Cli) in mouse liver microsomes; assay type: in vitro ADME
Text: (§1) inhibition at top, C= EC50, D= slope, x= inhibitor concentration and y= % inhibition. […]
(§2) reach 100% of inhibition, B was fixed to 100 only when at least 50% of inhibition was reached.
(§3) Plasmodium falciparum late stage (IV-V) gametocyte high content imaging assay Plasmodium falciparum NF54-pfs16-LUC-GFP stage IV-V Gametocytes were produced as described previously.5 Compounds were solubilized in DMSO and serially diluted in three concentrations per log standard curves in DM SO. One µl of compound was subsequently diluted in 25µl of water (4% DMSO) and 5µl transferred into the base of 384 well PerkinElmer CellCarrier plates. Forty-five µl of stage IV-V gametocytes (10%P in 0.1%H) were added to the imaging plates which were in turn sealed with a gas permeable membrane and incubated at 37°C, 5% CO 2, 5% O2, 90% N2 and 60% humidity […]
Post incubation, 5µl of MitoTracker® Red CM -H2Xros (MTR) solution (0.66ug/ml) was added to all wells and the plates incubated for a further 16hours. The assay plates were then imaged and the number of viable gametocytes determined for test compounds plus 0.4%DMSO and 5µM Puromycin.
(0.4%DMSO) control values. Percent inhibition was plotted against log compound concentration using a 4 parameter log dose, non-linear regression analysis, with sigmoidal dose response (variable slope) curve fit using Prizm 4.0. IC50 values were obtained from this curve fit. The compound testing was performed in duplicate point within two separate experiments.
Plasmodium berghei ookinete development assay
Assay was performed as previously reported.6 Briefly blood containing P. berghei CTRPp-GFP gametocytes was rapidly harvested from infected mice and introduced to test compounds pre-diluted in ookinete medium (to induce gamete formation and support ookinete development) in 96-well plates. Plates were incubated in the dark at 21°C for 22 hr before GFP fluorescence intensity measured in a plate reader. % inhibition of ookinete formation was calculated with reference to the fluorescence intensity values of a positive control (20 µM cycloheximide) and a solvent-only negative control (DMSO). All assays were performed in triplicate independent experiments and EC50 values calculated in Graphpad Prism.
The aqueous solubility of the test compounds was measured using laser nephelometry, as described previously.7 Compounds were subject to serial dilution from 10 mg/mL to 0.5 mg/mL in DMSO. An aliquot was then mixed with MilliQ water to obtain an aqueous dilution plate with a final concentration range of 100 – 5 μg/mL, with a final DMSO concentration of 1.0%. Triplicate aliquots were transferred to a flat bottomed polystyrene plate which was immediately read on the NEPHELOstar (BMG Lab Technologies). The amount of laser scatter caused by insoluble particulates (relative nephelometry units, RNU) was plotted against compound concentration using a segmental regression fit, with the point of inflection being quoted as the compounds aqueous solubility (μg/mL; […]
Intrinsic Clearance (Cli) experiments
The procedure was carried out as reported previously.7 Test compound (0.5 µM) was incubated with female CD1 mouse, male sprague-dawley rat or pooled human mixed gender liver microsomes (Xenotech LLC TM; 0.5 mg/mL 50 mM potassium phosphate buffer, pH 7.4) and the reaction initiated […]
by the addition of excess NADPH (8 mg/mL 50 mM potassium phosphate buffer, pH 7.4).
Immediately, at time zero, then at 3, 6, 9, 15 and 30 min an aliquot (50 μL) of the incubation mixture was removed and mixed with acetonitrile (100 μL) to stop the reaction. Internal standard was added to all samples, the samples centrifuged to sediment precipitated protein and the plates then sealed prior to UPLC-MS/MS analysis using a Quattro Premier XE (Waters Corporation, USA).
XLfit (IDBS, UK) was used to calculate the exponential decay and consequently the rate constant (k) from the ratio of peak area of test compound to internal standard at each timepoint. The rate of […]

Pf (3D7) = test: Ligand efficiency metrics (LE, LLE, LELP), selectivity and fold changes; set-up: species or system Plasmodium falciparum; conditions: for drop in potency: Pf (3D7), relative to the comparator compound of the sentence
MRC-5 cell line = test: Mammalian cell growth inhibition counter-screen (resazurin); assay type: cell-based, human; conditions: Homo sapiens, MRC5; supplementary csv; read-out: Hs MRC-5 EC50
Protocol: (§4) Plasmodium falciparum screening
(§5) Assays against P. falciparum were conducted as previously described.1 Cultures of the widely-used malaria reference strain of chloroquine-sensitive Plasmodium falciparum strain 3D7 were maintained in a 5% suspension of human red blood cells (obtained from East of Scotland Blood Transfusion Service, Ninewells Hospital, Dundee) cultured in RPMI 1640 medium (pH 7.3) supplemented with 0.5% Albumax II (Gibco Life Technologies, San Diego, CA), 12 mM sodium bicarbonate, 0.2 mM hypoxanthine and 20 mg/L gentamicin at 37°C, in a humidified atmosphere of 1% O 2, 3% CO2 with a balance of nitrogen. Growth inhibition was quantified using a fluorescence assay utilising the binding of SYBR green to double stranded DNA, which emits a fluorescent signal at 528 nm after excitation at 485nm.2 Mefloquine (potency range 30-60 nM) was used as a drug control to monitor the quality of the assay (Z’ = 0.6 to 0.8, Signal to background >3, where Z’ is a measure of the discrimination between the positive and negative controls on a screen plate). A 96-well [3H]-Hypoxanthine incorporation assay was also developed as a secondary assay in order to validate compounds from the initial screen in an orthogonal platform.3 Compound bioactivity from both assays was expressed as […]
(§6) P. falciparum (panel of resistant strains) in vitro assay. (Swiss TPH)
(§7) All Plasmodium strains were cultured according to Trager and Jensen and are described at www.beiresources.org (resistant strains: K1, W2, 7G8, TM90C2A, D6 and V1/S, sensitive strain:
(§8) NF54). EC50 values were determined in vitro by measuring incorporation of the nucleic acid precursor […]
(§9) Mammalian Cell Growth Inhibition assay
(§10) A counter-screen against normal diploid human fibroblasts (MRC-5 cell line) was carried out to exclude non-selective, and toxic compounds. The assay was essentially carried out as described previously.4 Cells were plated and incubated overnight to allow them to adhere as monolayers. A working stock of each test compound was transferred to an intermediate 384-well plate and pre-diluted with minimum essential media (MEM). The pre-diluted stocks were then transferred onto the cell monolayers, and the plates were incubated for 68 h. Resazurin, to a final concentration of 50 μM, was added to each well, after which plates were incubated for a further 3 h and measured for fluorescence (λex=528 nm, λem=590 nm)
(§11) In vitro Cell Assay Data Analysis.
(§12) All data was processed using IDBS ActivityBase® raw data was converted into per cent inhibition through linear regression by setting the high inhibition control as 100% and the no inhibition control as 0%. Quality control criteria for passing plates were as follows: Z’> 0.5, S:B> 3, %CV(no inhibition < 15 . The formula used to calculate Z’ is 1 3× (St D e v _ hi gh + St D e v _ low) . […]
(§13) All EC50 Curve fitting was undertaken using XLFit version 4.2 using Model 205 with the following 4 parametric equation: y = A + B A A + ($-&) ,where A=% inhibition at bottom, B=% […]
as §1, §2, §3
(§14) Post incubation, 5µl of MitoTracker® Red CM -H2Xros (MTR) solution (0.66ug/ml) was added to all wells and the plates incubated for a further 16hours. […]

[2] = tested on: Plasmodium falciparum strain 3D7; test: Plasmodium falciparum screening, SYBR green growth inhibition; assay type: cell-based
Protocol: as §4, §5, §6, §7, §8, §9, §10, §11, §12, §13, §1, §2, §3, §14

[3] = Mammalian cell growth inhibition counter-screen (resazurin); assay type: cell-based, human; conditions: human, MRC-5 cells (normal diploid human fibroblasts)
Protocol: as §4, §5, §6, §7, §8, §9, §10, §11, §12, §13, §1, §2, §3, §14

P. berghei ANKA strain = test: In vivo antimalarial efficacy in the P. berghei mouse model (Peter's test); set-up: species or system Plasmodium berghei in female NMRI mice; conditions: 4 × 10 mg/kg oral, once daily; mice cured / mice in group
Protocol: Compound 41 was dosed as a bolus solution intravenously at 1 mg free base/kg (dose volume: 5 mL/kg; dose vehicle: 5% DMSO;saline) or by gavage orally as solution at 3 mg free base/kg (dose volume: 10 mL/kg; Dose vehicle: 0.5% w/v hydroxypropylmethylcellulose with 0.4% v/v Tween 80 and 0.5% v/v benzyl alcohol) to male Sprague Dawley rats (n=3/dose route). Blood samples were taken from each rat at 5, 15, 30 min, 1, 2, 4, 6, 8, 24 and 30 h post-dose, mixed with two volumes of distilled water and stored frozen until UPLC/MS/MS analysis.
Pharmacokinetic parameters were derived from the blood concentration time curve for each compound using PKsolutions software v 2.0 (Summit Research Services, USA).
In vivo antimalarial efficacy studies in P. berghei. (Swiss TPH)
In vivo efficacy was conducted as previously described10 with the modification that female NMRI mice (n = 3) were infected with a GFP-transfected P. berghei ANKA strain (donated by A. P. Waters and C. J. Janse, Leiden University, The Netherlands), and parasitaemia determined (96 h after infection) using standard flow cytometry techniques. Compounds 1, 25, 27, 30 and 49 were prepared in 10% DM SO, 40% PEG 400 and 50% water prior to administration orally, once daily for 4 days.
Compounds 40, 41, 43 and 44 were prepared in a non-solubilizing, standard suspension vehicle called HPMC (0.5% [wt/vol] hydroxypropylmethylcellulose, 0.5% [vol/vol] benzyl alcohol, 0.4% [vol/vol] Tween 80, and 0.9% [wt/vol] sodium chloride in water) prior to administration orally, once daily for 4 days. Blood samples were collected on day 4 (96 h after infection) in two volumes water. Animals […]
and then hourly up to 4 h after dosing each day. The animals were selected randomly for each group

[4] = 3D7, supplementary csv, read-out: Pf (3D7) EC50

CN(CCN1CCCC1)C(=O)c1cc(-c2ccc(CN3CCOCC3)cc2)nc2ccc(F)cc12 [Compound 47, 6-Fluoro-N-methyl-2-(4-(morpholinomethyl)phenyl)-N-(2-(pyrrolidin-1-yl)ethyl)quinoline-4-carboxamide]
MLM Cli ([1]; mouse liver microsome): <0.5 mL min^–1 g^–1 | drop in potency (Pf (3D7)): 87 fold

O=C(NCCN1CCOCC1)c1cc(NCCCN2CCOCC2)nc2ccc(F)cc12 [Compound 32]
EC50 (MRC-5 cell line): > 50 µM

O=C(NCCN1CCC(F)(F)CC1)c1cc(NCCCN2CCOCC2)nc2ccc(F)cc12 [Compound 33]
EC50 (MRC-5 cell line): > 50 µM

O=C(NCCN1CCOCC1)c1cc(-c2ccc(CN3CCOCC3)cc2)nc2ccc(F)cc12 [Compound 46]
MLM Cli ([1]; mouse liver microsome): <0.5 mL min^–1 g^–1 | drop in potency (Pf (3D7)): 12 fold

O=C(NCCN1CCCC1)c1cc(-c2cccc(CN3CCOCC3)c2)nc2ccc(F)cc12 [Compound 45]
EC50 [2, 4]: 10.4 µM

O=C(NCCN1CCCC1)c1cc(-c2ccc(C(=O)N3CCOCC3)cc2)nc2ccc(F)cc12 [Compound 39, 6-Fluoro-2-(4-(morpholine-4-carbonyl)phenyl)-N-(2-(pyrrolidin-1-yl)ethyl)quinoline-4-carboxamide]
EC50 at 68 h [3]: > 50 µM

Cc1ccc(-c2cc(C(=O)Nc3cccnc3)c3cc(Br)ccc3n2)cc1 [Compound 1]
LLE (ligand-lipophilicity efficiency) (Pf (3D7)): 2.6

O=C(NCCNC1CC1)c1cc(-c2ccc(CN3CCOCC3)cc2)nc2ccc(F)cc12 [Compound 48, N-(2-(Cyclopropylamino)ethyl)-6-fluoro-2-(4-(morpholinomethyl)phenyl)quinoline-4-carboxamide]
EC50 [2, 4]: 0.0024 µM | MLM Cli ([1]; mouse liver microsome): 2 mL min^–1 g^–1

OC(c1cc(C(F)(F)F)nc2c(C(F)(F)F)cccc12)C1CCCCN1 (stereo not drawn) [Mefloquine, reference compound]
EC50 ([2]; 3D7, quality control of the assay, read-out: potency range (drug control)): 0.03 to 0.06 µM

O=C(NCCN1CCCC1)c1cc(NCCN2CCOCC2)nc2ccc(F)cc12 [Compound 26, 6-Fluoro-2-((3-morpholinoethyl)amino)-N-(2-(pyrrolidin-1-yl)ethyl)quinoline-4-carboxamide]
MLM Cli ([1]; mouse liver microsomes): < 0.5 mL/min/g

Cc1ccc(-c2cc(C(=O)NCCN3CCCC3)c3cc(F)ccc3n2)cc1 [Compound 19]
LLE (ligand-lipophilicity efficiency) (Pf (3D7)): 3.2

O=C(NCCN1CCC(F)CC1)c1cc(NCCCN2CCOCC2)nc2ccc(F)cc12 [Compound 31]
EC50 (MRC-5 cell line): 40.9 µM

O=C(NCCN1CCCC1)c1cc(N2CCn3ccnc3C2)nc2ccc(F)cc12 [Compound 22, 2-(5,6-Dihydroimidazo[1,2-a]pyrazine-7(8H)-yl)-6-fluoro-N-(2-(pyrrolidin-1-yl)ethyl)quinoline-4-carboxamide]
EC50 at 68 h [3]: > 50 µM

O=C(NCCN1CCCC(F)(F)C1)c1cc(NCCCN2CCOCC2)nc2ccc(F)cc12 [Compound 34]
EC50 (MRC-5 cell line): > 50 µM

O=C(NCCN1CCC(F)(F)C1)c1cc(NCCCN2CCOCC2)nc2ccc(F)cc12 [Compound 35]
EC50 (MRC-5 cell line): > 50 µM

Cc1cc(Nc2cc(C(=O)NCCN3CCCC3)c3cc(F)ccc3n2)on1 [Compound 20]
EC50 at 68 h [3]: > 50 µM

Cc1ccc(-c2cc(C(=O)NCCCN(C)C)c3cc(Cl)ccc3n2)cc1 [Compound 14, 6-Chloro-N-(3-(dimethylamino)propyl)-2-(p-tolyl)quinoline-4-carboxamide]
EC50 (MRC-5 cell line): 5.55 µM

Cc1ccc(-c2cc(C(=O)NCCN3CCCCC3)c3cc(Cl)ccc3n2)cc1 [Compound 17]
EC50 (MRC-5 cell line): 7.4 µM

O=C(NCCN1CCC1)c1cc(-c2ccc(CN3CCOCC3)cc2)nc2ccc(F)cc12 [Compound 49, N-(2-(Azetidin-1-yl)ethyl)-6-fluoro-2-(4-(morpholinomethyl)phenyl)quinoline-4-carboxamide]
MLM Cli ([1]; mouse liver microsome): 0.5 mL min^–1 g^–1 | cure (P. berghei ANKA strain): 1/3

O=C(NCCN1CCCC1)c1cc(N2CCC(N3CCOCC3)CC2)nc2ccc(Cl)cc12 [Compound 24, 6-Chloro-2-(4-morpholinopiperidin-1-yl)-N-(2-(pyrrolidin-1-yl)ethyl)quinoline-4-carboxamide]
LLE (ligand-lipophilicity efficiency) (Pf (3D7)): 4.2

— paper PMC5108032, “Discovery of a Quinoline-4-carboxamide Derivative with a Novel Mechanism of Action, Multistage Antimalarial Activity, and Potent in Vivo Efficacy” (Journal of Medicinal Chemistry, 2016)
